In patent publication US10632119B2, “Fused bicyclic 2,4-diaminopyrimidine derivative as a dual ALK and FAK inhibitor” (priority 2012, dated 2020):
≈ marks a conversion by molar mass, not a printed value. Where two headings read alike, the source gives them in different places.

Legend:
Protein binding, human = assay type: in vitro ADME; conditions: human (H)
Monkey bioavailability = conditions: in vivo, po
CYP3A4 = CYP3A4 induction in vitro; conditions: @ 10 μM
CYP 1A2 = CYP 1A2 (Homo sapiens, UniProt P05177); test: CYP inhibition; assay type: in vitro ADME
Muscarinic M1 = Muscarinic M1 (Homo sapiens, UniProt P11229); test: Receptor selectivity (Cerep); assay type: binding
in vivo = conditions: both, rat, po
Protocol: Animals were dosed via oral gavage.
Assessment of toxicity was based on mortality, clinical observations, body weights, body weight changes, food consumption, ophthalmic examinations, and clinical and anatomic pathology. Blood samples were collected for toxicokinetic evaluations.

Equilibrium solubility = assay type: physicochemical; conditions: thermodynamic from solid
Histamine H2 = Histamine H2 (Homo sapiens, UniProt P25021); test: Receptor selectivity (Cerep); assay type: binding
[1] = test system: Sup-M2 ALCL tumor xenografts; test: Anti-tumor efficacy, NPM-ALK positive Sup-M2 ALCL xenograft; conditions: for anti-tumor efficacy: 12 days
Protocol: (§1) Anti-Tumor Efficacy Studies—General Protocol
(§2) The tumor volumes were then calculated with the formula of 0.5236*L*W*(L+W)/2.
(§3) Anti-Tumor Efficacy in NPM-ALK Positive Sup-M2 and Karpas-299 ALCL Tumor Xenograft Models in Mice

Caco-2 permeability = assay type: in vitro ADME; conditions: human
[2] = test system: NCI-H2228 NSCLC tumor xenografts; test: Anti-tumor activity, EML4-ALK positive NCI-H2228 NSCLC xenograft
Description: Anti-Tumor Activity in EML4-ALK Positive (NCI-H2228 and NCI-H3122) NSCLC Tumor Xenografts in Mice with Oral Dosing
Generation of EML4-ALK-positive and EML4-ALK-negative NSCLC Subcutaneous Tumor Xenografts in Scid Mice Female Scid/Beige mice (6-8 weeks, Taconic, Hudson. N.Y.) were maintained 5/cage in microisolator units on a standard laboratory diet (Teklad Labchow, Harlan Teklad, Madison, Wis.). Animals were housed under humidity- and temperature controlled conditions and the light/dark cycle was set at 12-hour intervals. Mice were quarantined at least 1 week prior to experimental manipulation. […] The mice were monitored until the tumor xenograft volumes reached 200-500 mm3.
The length (L) and width (W) of each tumor were measured with vernier calipers and the mouse body weight was determined every two to three days. […] Percent tumor growth inhibition (% TGI) was calculated as follows: (tumor volume of the control group at end of treatment—tumor volume of the treated group at the end of treatment)/tumor volume of the control group at the end of treatment. […] Complete tumor regression (CR) was defined as the tumor volume of the treated group at the end of treatment being less than 5% of the tumor volume of the treated group as the start of treatment. Statistical analyses of tumor volumes and mouse body weights were carried out with the Mann-Whitney Rank Sum Test. Plasma and tumor samples were obtained at 2 hours post final dose at each dose level, and the compound levels in plasma and tumor lysates were measured by LC-MS/MS

CYP 2C9 = CYP 2C9 (Homo sapiens, UniProt P11712); test: CYP inhibition; assay type: in vitro ADME
Muscarinic M3 = Muscarinic M3 (Homo sapiens, UniProt P20309); test: Receptor selectivity (Cerep); assay type: binding
[3] = 4-week oral toxicity and toxicokinetic study of CEP-37440 in monkeys, 4-week recovery; assay type: in vivo, cynomolgus monkeys (Macaca fascicularis)
Protocol: Male and female cynomolgus monkeys (Macaca fascicularis) were assigned to 4 groups (3-treated and a vehicle control group) consisting of 5 monkeys/sex/group. Dose levels evaluated in this study were 0 (pH-adjusted reverse osmosis water), 2.5, 7.5, and 20 mg/kg/day. The dosing volume was 5 mL/kg. CEP-37440 was administered as the trihydrochloride dihydrate salt form. After completion of the dosing phase, 3 monkeys/sex/group were euthanized and 2 monkeys/sex/group continued on a treatment-free recovery phase for an additional 4 weeks.

[4] = test system: Karpas-299 tumor xenografts; conditions: for anti-tumor efficacy: amorphous HCl salt
Protocol: as §1, §2, §3

DA transporter = DA transporter (Homo sapiens, UniProt Q01959); test: Receptor selectivity (Cerep); assay type: binding
Mouse bioavailability = assay type: in vivo
Protein binding, mouse = assay type: in vitro ADME; conditions: mouse (M)
[5] = 10 days
[6] = In vitro metabolic stability, monkey; assay type: in vitro ADME; conditions: monkey (Mo); read-out: In vitro metabolic stability t1/2
[7] = In vitro metabolic stability, mouse; assay type: in vitro ADME; conditions: mouse (M); read-out: In vitro metabolic stability t1/2
Rat bioavailability = conditions: in vivo, po
Neurokinin NK1 = Neurokinin NK1 (Homo sapiens, UniProt P25103); test: Receptor selectivity (Cerep); assay type: binding
[8] = test system: PC-3 prostate tumor xenografts
Description: (§4) Anti-Tumor Efficacy Studies in Human Tumor Xenografts of Hormone-Independent Prostate Carcinoma, NSCL Carcinoma and HNSC Carcinoma
(§5) The human prostate carcinoma cell lines, CWR22 and PC3, and human head and neck squamous cell carcinoma cell line Detroit 562 were obtained from American Tissue Culture Collection (ATCC, Manassas, Va.). […] Human non-small cell lung cancer cell line HCC-827 and human breast cancer cell line BT474 were also purchased from the ATCC (Manassas, Va.) and cultured in RPMI (Cat #10-040, Mediatech Inc, Manassas, Va.) with 10% FBS. The rabbit phospho-FAK (Tyr397) (Cat #3283) and FAK antibodies (Cat #3285) were purchased from Cell Signaling Technology (Beverly, Mass.).
(§6) The mice were then monitored daily.
as §2

[9] = test system: Detroit 562 HNSCC xenografts
Description: as §4, §5, §6, §2

[10] = test system: HCC-827 human NSCL carcinoma xenografts
Description: as §4, §5, §6, §2

CYP 2D6 = CYP 2D6 (Homo sapiens, UniProt P10635); test: CYP inhibition; assay type: in vitro ADME
[11] = bid or qd oral dosing at 10 and 30 mg/kg
[12] = four weeks of additional treatment at 55 mg/kg qd po

Sequence of Neurokinin NK1 (P25103 whole entry): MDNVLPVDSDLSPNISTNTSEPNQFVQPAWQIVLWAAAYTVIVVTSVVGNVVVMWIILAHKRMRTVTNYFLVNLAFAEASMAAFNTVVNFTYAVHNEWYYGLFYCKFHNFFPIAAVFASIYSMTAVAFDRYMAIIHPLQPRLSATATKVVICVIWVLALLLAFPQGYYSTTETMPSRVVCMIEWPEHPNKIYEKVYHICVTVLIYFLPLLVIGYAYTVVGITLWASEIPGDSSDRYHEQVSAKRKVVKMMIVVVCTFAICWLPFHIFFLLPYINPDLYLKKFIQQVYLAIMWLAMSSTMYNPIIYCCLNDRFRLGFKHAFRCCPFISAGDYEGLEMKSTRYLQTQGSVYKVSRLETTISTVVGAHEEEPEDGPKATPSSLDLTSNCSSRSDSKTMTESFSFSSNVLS
Sequence of CYP 2C9 (P11712 whole entry): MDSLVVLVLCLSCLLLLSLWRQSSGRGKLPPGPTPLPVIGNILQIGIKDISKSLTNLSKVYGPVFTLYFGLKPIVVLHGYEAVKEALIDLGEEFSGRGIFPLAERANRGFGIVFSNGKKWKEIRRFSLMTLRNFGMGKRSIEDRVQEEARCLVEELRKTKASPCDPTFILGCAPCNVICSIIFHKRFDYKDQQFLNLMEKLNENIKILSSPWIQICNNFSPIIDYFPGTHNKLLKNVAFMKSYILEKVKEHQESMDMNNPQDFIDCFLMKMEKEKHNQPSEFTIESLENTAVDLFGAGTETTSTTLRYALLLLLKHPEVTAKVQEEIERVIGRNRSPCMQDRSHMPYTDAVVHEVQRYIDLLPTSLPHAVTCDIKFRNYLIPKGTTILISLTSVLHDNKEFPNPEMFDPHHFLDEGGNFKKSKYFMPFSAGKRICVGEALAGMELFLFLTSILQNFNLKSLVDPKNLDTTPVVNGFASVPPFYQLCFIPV
Sequence of Muscarinic M1 (P11229 whole entry): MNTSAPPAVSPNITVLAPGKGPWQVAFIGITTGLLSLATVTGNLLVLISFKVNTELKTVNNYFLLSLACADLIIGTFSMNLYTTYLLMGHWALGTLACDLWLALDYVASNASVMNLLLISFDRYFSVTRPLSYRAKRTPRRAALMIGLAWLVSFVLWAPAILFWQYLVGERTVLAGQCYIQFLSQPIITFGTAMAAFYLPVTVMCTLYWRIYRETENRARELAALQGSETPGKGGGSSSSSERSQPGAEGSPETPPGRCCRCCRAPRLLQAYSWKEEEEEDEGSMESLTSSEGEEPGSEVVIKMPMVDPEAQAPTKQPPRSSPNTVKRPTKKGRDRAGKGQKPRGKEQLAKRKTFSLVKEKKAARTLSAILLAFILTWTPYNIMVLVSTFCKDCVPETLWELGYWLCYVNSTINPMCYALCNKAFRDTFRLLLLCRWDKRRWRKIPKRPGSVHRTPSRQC
Sequence of CYP 1A2 (P05177 whole entry): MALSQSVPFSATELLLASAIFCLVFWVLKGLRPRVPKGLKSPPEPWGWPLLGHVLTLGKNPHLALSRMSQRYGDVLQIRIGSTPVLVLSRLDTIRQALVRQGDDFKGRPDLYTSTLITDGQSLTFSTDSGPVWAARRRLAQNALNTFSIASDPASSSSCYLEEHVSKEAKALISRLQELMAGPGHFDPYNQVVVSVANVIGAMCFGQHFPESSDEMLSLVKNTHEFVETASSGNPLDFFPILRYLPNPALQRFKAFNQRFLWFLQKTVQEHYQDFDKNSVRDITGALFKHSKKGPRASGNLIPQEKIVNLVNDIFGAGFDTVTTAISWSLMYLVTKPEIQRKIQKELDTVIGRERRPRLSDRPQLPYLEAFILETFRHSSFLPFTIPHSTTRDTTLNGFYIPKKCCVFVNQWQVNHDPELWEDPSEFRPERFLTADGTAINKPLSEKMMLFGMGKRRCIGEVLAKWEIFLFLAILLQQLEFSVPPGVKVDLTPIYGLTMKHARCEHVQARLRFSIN
Sequence of Histamine H2 (P25021 whole entry): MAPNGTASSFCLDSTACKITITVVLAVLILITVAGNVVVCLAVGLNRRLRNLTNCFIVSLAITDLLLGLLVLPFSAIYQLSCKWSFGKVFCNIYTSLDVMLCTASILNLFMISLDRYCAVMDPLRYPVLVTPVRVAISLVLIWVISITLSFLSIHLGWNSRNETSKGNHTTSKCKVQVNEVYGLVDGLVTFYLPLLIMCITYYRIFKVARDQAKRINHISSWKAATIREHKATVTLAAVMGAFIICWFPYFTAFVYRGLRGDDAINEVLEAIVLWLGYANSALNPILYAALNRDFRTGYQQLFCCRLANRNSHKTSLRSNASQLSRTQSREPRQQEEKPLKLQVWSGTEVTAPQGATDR
Sequence of Muscarinic M3 (P20309 whole entry): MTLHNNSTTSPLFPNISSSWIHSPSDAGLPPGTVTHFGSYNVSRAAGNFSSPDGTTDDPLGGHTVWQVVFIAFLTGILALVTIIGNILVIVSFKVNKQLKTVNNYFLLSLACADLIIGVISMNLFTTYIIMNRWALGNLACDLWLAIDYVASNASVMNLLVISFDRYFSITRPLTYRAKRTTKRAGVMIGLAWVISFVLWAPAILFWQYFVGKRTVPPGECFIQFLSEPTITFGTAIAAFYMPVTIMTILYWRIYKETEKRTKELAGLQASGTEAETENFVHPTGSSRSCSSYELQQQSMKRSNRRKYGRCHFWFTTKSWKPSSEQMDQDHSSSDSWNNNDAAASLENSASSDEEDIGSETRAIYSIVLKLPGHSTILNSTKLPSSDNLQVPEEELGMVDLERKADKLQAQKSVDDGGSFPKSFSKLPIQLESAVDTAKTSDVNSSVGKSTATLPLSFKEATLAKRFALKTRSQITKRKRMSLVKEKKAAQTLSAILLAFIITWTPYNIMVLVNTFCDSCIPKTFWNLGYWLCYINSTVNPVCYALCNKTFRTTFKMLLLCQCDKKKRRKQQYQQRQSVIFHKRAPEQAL
Sequence of CYP 2D6 (P10635 whole entry): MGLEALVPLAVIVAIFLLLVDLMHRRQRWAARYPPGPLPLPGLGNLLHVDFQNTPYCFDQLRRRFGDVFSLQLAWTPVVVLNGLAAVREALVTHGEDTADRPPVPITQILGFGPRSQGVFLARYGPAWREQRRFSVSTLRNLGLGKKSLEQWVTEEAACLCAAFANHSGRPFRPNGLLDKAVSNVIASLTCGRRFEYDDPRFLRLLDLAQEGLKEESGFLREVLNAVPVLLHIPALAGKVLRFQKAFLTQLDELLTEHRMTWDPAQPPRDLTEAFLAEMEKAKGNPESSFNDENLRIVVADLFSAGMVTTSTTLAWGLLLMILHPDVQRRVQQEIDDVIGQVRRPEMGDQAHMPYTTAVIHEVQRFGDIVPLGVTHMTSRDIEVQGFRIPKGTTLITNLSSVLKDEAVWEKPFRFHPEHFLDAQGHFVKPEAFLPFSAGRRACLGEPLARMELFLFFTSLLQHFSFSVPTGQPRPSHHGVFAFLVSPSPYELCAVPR
Sequence of DA transporter (Q01959 whole entry, species assumed): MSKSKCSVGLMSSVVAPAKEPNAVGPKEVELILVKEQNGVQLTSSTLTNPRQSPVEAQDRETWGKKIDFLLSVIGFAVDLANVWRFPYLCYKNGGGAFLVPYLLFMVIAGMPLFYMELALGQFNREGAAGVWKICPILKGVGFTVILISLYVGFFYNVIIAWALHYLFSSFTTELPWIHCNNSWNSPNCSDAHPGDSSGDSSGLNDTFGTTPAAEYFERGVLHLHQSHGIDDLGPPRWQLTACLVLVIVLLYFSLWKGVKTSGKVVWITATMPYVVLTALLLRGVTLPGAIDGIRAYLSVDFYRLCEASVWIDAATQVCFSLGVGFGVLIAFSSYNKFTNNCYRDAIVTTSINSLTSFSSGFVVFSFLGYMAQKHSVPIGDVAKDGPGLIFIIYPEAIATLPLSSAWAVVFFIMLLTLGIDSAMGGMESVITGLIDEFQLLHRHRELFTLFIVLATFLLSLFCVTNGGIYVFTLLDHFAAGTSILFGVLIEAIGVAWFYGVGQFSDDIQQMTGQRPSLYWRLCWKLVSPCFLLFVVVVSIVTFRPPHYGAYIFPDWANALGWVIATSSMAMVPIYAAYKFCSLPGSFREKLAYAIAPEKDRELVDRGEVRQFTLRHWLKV

Question: Which Protein binding (Protein binding, human) does the source give for `CNC(=O)c1ccccc1Nc1nc(Nc2ccc3c(c2OC)CCC[C@H](N2CCN(CCO)CC2)C3)ncc1Cl` [CEP-37440, 2-[[5-chloro-2-[[(6S)-6-[4-(2-hydroxyethyl)piperazin-1-yl]-1-methoxy-6,7,8,9-tetrahydro-5H-benzo[7]annulen-2-yl]amino]pyrimidin-4-yl]amino]-N-methyl-benzamide] here?
Answer: The Protein binding was 95 % bound.

Question: What about the bioavailability (Monkey bioavailability; 10 mg/kg) of the same compound?
Answer: The bioavailability was 50%.

Question: And the bioavailability (Monkey bioavailability; 30 mg/kg)?
Answer: Its bioavailability is 74%.

Question: And the “CYP3A4 induction in vitro” value (CYP3A4)?
Answer: Its value is 1.5 @ 10 μM fold.

Question: And the IC50 (CYP 1A2)?
Answer: The IC50 was greater than 30 µM.

Question: And the Ki (Muscarinic M1)?
Answer: The Ki was 2.46 µM.

Question: What about the NOAEL at 4 weeks (in vivo) of the same compound?
Answer: The NOAEL at 4 weeks was 10 mg/kg/day.

Question: And the solubility thermodynamic (Equilibrium solubility; pH 2, simulated gastric fluid, read-out: Equilibrium solubility at pH 2)?
Answer: The solubility thermodynamic was greater than 1000 µg/mL.

Question: And the solubility thermodynamic (Equilibrium solubility; pH 7.4, aqueous buffer, read-out: Equilibrium solubility at pH 7.4)?
Answer: Its solubility thermodynamic is 280 µg/mL (≈ 483 µM).

Question: What about the Ki (Histamine H2) of the same compound?
Answer: Its Ki is 5.2 µM.

Question: And the anti-tumor efficacy ([1]; 10 mg/kg or lower, bid, po)?
Answer: The anti-tumor efficacy was “No significant anti-tumor activity”.

Question: What about the anti-tumor efficacy ([1]; 30 mg/kg bid po) of the same compound?
Answer: Its anti-tumor efficacy is “complete or near complete tumor regression”.

Question: What about the anti-tumor efficacy ([1]; 30 mg/kg, qd, po) of the same compound?
Answer: The anti-tumor efficacy was “partial tumor regression”.

Question: What about the anti-tumor efficacy ([1]; 55 mg/kg qd po) of the same compound?
Answer: The anti-tumor efficacy was “complete or near complete tumor regression”.

Question: What about the “tolerability, body weight” value ([1]; all dosing regimens) of the same compound?
Answer: Its value is “well tolerated with no overt toxicity and no significant compound-related body weight loss”.

Question: And the “plasma level at 2 h post final dosing versus 2 h post single oral dose” value [1, 11]?
Answer: Its value is 2-3 fold.

Question: What about the “tumor level at 2 h post final dosing versus 2 h post single oral dose” value [1, 11] of the same compound?
Answer: Its value is “more than 10 fold”.

Question: And the Papp (Caco-2 permeability)?
Answer: The Papp was 1.26 ×10⁻⁶ cm/s.

Question: What about the “mice with sustained tumor regressions, no tumor re-emergence” value ([2]; 40 days following cessation of treatment) of the same compound?
Answer: The value was 100%.

Question: What about the “animals with sustained complete tumor regression” value [2, 12] of the same compound?
Answer: Its value is 100%.

Question: What about the “tolerability, body weight” value [2, 12] of the same compound?
Answer: The value was “well tolerated with no overt toxicity and no significant body weight loss”.

Question: What about the IC50 (CYP 2C9) of the same compound?
Answer: Its IC50 is greater than 30 µM.

Question: And the Ki (Muscarinic M3)?
Answer: The Ki was 3.5 µM.

Question: What about the survival ([3]; 2.5, 7.5, 20 mg/kg/day, 4 weeks) of the same compound?
Answer: The survival was “All animals survived until their scheduled sacrifice”.

Question: What about the ECG ([3]; 2.5, 7.5, 20.0 mg/kg/day, Days 3 and 27 of dosing, Day 28 of recovery) of the same compound?
Answer: Its ECG is “No drug-related changes in PR interval, QRS duration, QT interval, corrected QT (QTc) interval, RR interval, or heart rate”.

Question: And the body weight ([3]; dosing or recovery phase)?
Answer: Its body weight is “no drug-related effects on body weight or body weight gain”.

Question: And the “doses well tolerated, no drug-related effects” value ([3]; oral, 28 consecutive days)?
Answer: The value was “up to 20 mg/kg/day”.

Question: What about the “clinical pathology test results” value ([3]; up to 20.0 mg/kg/day) of the same compound?
Answer: Its value is “had no effect on clinical pathology test results”.

Question: And the pulmonary edema ([3]; up to 20 mg/kg/day, 28 days)?
Answer: The pulmonary edema was “no evidence whatsoever of pulmonary edema”.

Question: And the anti-tumor efficacy ([4]; 30 mg/kg bid, 12 days)?
Answer: The anti-tumor efficacy was “complete or near complete tumor regression”.

Question: And the anti-tumor efficacy ([4]; 30 mg/kg qd)?
Answer: The anti-tumor efficacy was “significant anti-tumor activity”.

Question: And the anti-tumor efficacy ([4]; 55 mg/kg, qd, 12 days)?
Answer: The anti-tumor efficacy was “complete or near complete tumor regression”.

Question: And the “tolerability, body weight” value ([4]; all dosing regimens)?
Answer: The value was “well tolerated with no overt toxicity and no significant body weight loss”.

Question: And the Ki (DA transporter)?
Answer: The Ki was 2.1 µM.

Question: What about the Mouse bioavailability (Mouse bioavailability; CD-1 mouse, CEP-37440 as amorphous HCl salt) of the same compound?
Answer: The Mouse bioavailability was 102%.

Question: What about the bioavailability (Mouse bioavailability; Scid, mouse, in vivo, po) of the same compound?
Answer: The bioavailability was 99%.

Question: What about the Protein binding (Protein binding, mouse) of the same compound?
Answer: The Protein binding was 85 % bound.

Question: What about the “doses with drug-related adverse findings (body weight, bone marrow, spleen, thymus, lymph node, lung)” value ([5]; daily gavage) of the same compound?
Answer: The value was no less than 30 mg/kg/day.

Question: And the dose well tolerated ([5]; rat, in vivo)?
Answer: The dose well tolerated was 10 mg/kg/day.

Question: And the half-life [6]?
Answer: The half-life was 21 min.

Question: And the half-life [7]?
Answer: Its half-life is greater than 40 min.

Question: And the bioavailability (Rat bioavailability)?
Answer: The bioavailability was greater than 42%.

Question: What about the Ki (Neurokinin NK1) of the same compound?
Answer: Its Ki is 1.2 µM.

Question: What about the “incidence of complete tumor regressions” value ([8]; 36 day period, oral) of the same compound?
Answer: The value was 10%.

Question: And the “tumor growth inhibition (TGI)” value ([8]; 36 day period, oral, equivalent doses of both compounds)?
Answer: The value was 55%.

Question: And the “tolerability, body weight” value ([8]; all dosing regimens)?
Answer: Its value is “well tolerated with no overt toxicity or significant body weight loss observed”.

Question: And the “incidence of partial tumor regressions” value ([9]; 30 mg/kg bid, 28-day period)?
Answer: Its value is 20%.

Question: What about the “incidence of partial tumor regressions” value ([9]; 55 mg/kg bid, 28-day period) of the same compound?
Answer: Its value is 30%.

Question: And the anti-tumor efficacy ([9]; 28-day period)?
Answer: Its anti-tumor efficacy is “tumor stasis”.

Question: What about the tolerability ([9]; all dosing regimens) of the same compound?
Answer: The tolerability was “well-tolerated with no morbidity or mortality observed”.

Question: And the “tumor pharmacodynamic inhibition of FAK activation” value ([9]; no effect on total FAK expression levels)?
Answer: Its value is “clear tumor pharmacodynamic effect for inhibition of FAK activation”.

Question: And the TGI ([10]; 30 mg/kg bid, day 28)?
Answer: Its TGI is 60%.

Question: And the TGI ([10]; 55 mg/kg bid, day 28)?
Answer: The TGI was 80%.

Question: What about the “incidence of complete tumor regressions” value ([10]; 55 mg/kg bid, day 28) of the same compound?
Answer: Its value is 30%.

Question: And the “incidence of partial tumor regressions” value ([10]; 55 mg/kg bid, day 28)?
Answer: Its value is 30%.

Question: What about the “incidence of tumor regressions” value ([10]; 55 mg/kg bid, day 28) of the same compound?
Answer: The value was 60%.

Question: And the “tolerability, body weight” value ([10]; mouse, in vivo)?
Answer: The value was “well tolerated, with no overt toxicity or significant body weight loss observed”.

Question: What about the IC50 (CYP 2D6) of the same compound?
Answer: Its IC50 is greater than 30 µM.
